Assay results published in US20110281949A1, “METHODS AND COMPOSITIONS FOR TREATING NEURONAL DAMAGE AND MODULATING TRANSIENT RECEPTOR POTENTIAL CHANNELS” (priority 2008, published 2011).

Target: T1, TRP (Drosophila melanogaster, UniProt P19334)
T1 sequence (P19334 1-1275): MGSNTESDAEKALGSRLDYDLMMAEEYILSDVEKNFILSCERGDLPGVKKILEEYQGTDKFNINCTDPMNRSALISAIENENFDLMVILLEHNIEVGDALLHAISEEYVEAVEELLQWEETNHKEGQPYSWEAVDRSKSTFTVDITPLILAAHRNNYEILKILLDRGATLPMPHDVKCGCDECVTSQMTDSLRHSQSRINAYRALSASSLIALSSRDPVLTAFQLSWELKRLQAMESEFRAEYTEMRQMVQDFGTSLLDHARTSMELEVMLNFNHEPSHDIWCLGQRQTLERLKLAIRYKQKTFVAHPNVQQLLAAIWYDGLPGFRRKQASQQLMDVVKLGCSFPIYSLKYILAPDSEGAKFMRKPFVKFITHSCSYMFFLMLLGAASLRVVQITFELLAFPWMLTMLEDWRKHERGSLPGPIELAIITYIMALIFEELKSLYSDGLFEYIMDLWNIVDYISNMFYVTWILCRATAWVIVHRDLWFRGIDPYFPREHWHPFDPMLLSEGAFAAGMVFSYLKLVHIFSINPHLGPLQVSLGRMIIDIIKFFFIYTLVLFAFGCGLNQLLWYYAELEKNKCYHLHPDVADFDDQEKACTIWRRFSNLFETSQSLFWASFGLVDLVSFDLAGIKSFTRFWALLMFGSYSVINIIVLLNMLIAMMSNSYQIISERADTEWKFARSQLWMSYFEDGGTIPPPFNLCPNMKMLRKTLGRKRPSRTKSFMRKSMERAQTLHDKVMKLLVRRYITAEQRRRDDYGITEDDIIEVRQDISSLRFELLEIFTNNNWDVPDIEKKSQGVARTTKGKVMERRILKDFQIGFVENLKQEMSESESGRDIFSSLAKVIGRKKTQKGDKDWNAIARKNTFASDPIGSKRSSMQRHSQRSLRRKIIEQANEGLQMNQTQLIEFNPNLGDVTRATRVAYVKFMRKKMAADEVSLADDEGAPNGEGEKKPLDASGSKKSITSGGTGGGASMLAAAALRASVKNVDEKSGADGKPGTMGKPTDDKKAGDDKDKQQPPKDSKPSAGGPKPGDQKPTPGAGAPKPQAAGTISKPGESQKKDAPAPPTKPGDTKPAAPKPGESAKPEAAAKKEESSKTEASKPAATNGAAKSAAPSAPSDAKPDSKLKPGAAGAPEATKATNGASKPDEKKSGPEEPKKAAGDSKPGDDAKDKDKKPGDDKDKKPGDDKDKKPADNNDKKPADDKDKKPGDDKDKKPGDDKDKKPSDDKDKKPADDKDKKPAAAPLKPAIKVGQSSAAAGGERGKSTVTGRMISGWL
Experiment: Light-induced current (LIC) in photoreceptor cells of wild-type flies (native TRP)
Description: Drosophila white-eyed flies of the following strains were used: wt and trp^P343. Flies were raised at 24° C. in a 12 h light/dark cycle.
A tungsten trans-illumination light (12 V, 100 W halogen lamp, in conjunction with a Schott OG 590 orange edge filter and a KG3 heat filter) provided illumination for stimulation of the photoreceptors in all experiments. Stimulating light was applied via a condenser lens (Carl Zeiss Microlmaging, Inc.) and was attenuated by neutral density filters. The maximal luminous intensity of the unattenuated orange light at the level of the ommatidia was 3.2 mW/cm^2.
Dissociated Drosophila ommatidia were prepared from newly emerged flies (<1 h after eclosion) that were kept in the dark 12-18 h before the experiment. Whole-cell, patch-clamp recordings were performed as described in Peretz et al, 1994. Currents were recorded at 21° C. using borosilicate patch pipettes of 8-10 MO and an Axopatch 200B™ (Molecular Devices, Inc.) voltage-clamp amplifier. Voltage-clamp pulses were generated and data captured using a Digidata 1200™ interfaced to a computer running pClamp 8.0 software (Axon Instruments, Inc.). Currents were filtered using the 8-pole low pass Bessel filter of the patch-clamp amplifier at 5 kHz and sampled at 10 kHz. Series resistance was compensated to ˜80%. […]

Cc1ccc(C(C)C)cc1O [Compound IX, 5-Isopropyl-2-methylphenol]
Effect on light-induced current (LIC) of WT flies, native TRP: inhibited LIC of WT flies
